Data: patent publication US20200071699A1, “TREATMENT OF ALZHEIMERS DISEASE WITH MICRO RNA AND GHRELIN” (priority 2018, published 2020)
Ends that are not written are not given here. * marks the point of attachment. Octanoyl = CCCCCCCC(=O)*

Columns and labels:
miR-145 = assay: qPCR of capillary miR-145 after ghrelin administration; format: in vivo, mouse; conditions: 3×Tg-AD mice aged 9 months; ghrelin s.c. vs saline; P<0.05
Excerpt: (§1) Triple transgenic mice, 3×Tg-AD, containing three mutations ([…], APP Swedish and MAPT P301L), are widely used as an animal model of FAD. Age and gender-matched B6129SF2/J strain were used as the wild type (WT) control. Mice were obtained from the Jackson Laboratory and bred in our research institute's animal facility. Mice were housed in plastic cages on a 12 hr/12 hr light/dark cycle with ad libitum access to water and standard rodent diet. Animal usage was approved by California Medical Innovations Institute (CalMI2) Institutional Animal Care and Use Committee (IACUC). The genotyping was conducted in CalMI2 animal facilities at the age of 21 days by tail DNA extraction according to our previous protocol and the online information supplied by the vendor. […]
(§2) Total RNA was purified with Trizol reagent (Invitrogen), according to the manufacturer's instructions. To quantify miR-126-3p (MIMAT0000138), miR-145-5p (MIMAT0000157), miR-195-5p (MIMAT0000225), miR-21-5p (MIMAT0000530) and miR-29b-3p (MIMAT0000127), reverse transcription and quantitative PCR (qPCR) were performed using the TaqMan@ microRNA assay kit (Applied Biosystems) as previously described. […] Relative gene expression levels between wild type and 3×Tg-AD mice were determined using the comparative Ct (2^−ΔΔCt) method after normalizing to U6.

[1] = tested on: pericytes coverage of capillaries; assay: Pericyte coverage of isolated capillaries after ghrelin administration; format: in vivo, mouse; conditions: 3×Tg-AD mice aged 9 months; ghrelin s.c. per day every 2 days for 2 weeks vs vehicle (saline); P<0.001
Excerpt: as §1
(§3) The isolated microvessel fragments were smeared onto Superfrost Plus pre-cleaned glass microscope slides and fixed using ICC Fixation Buffer (BD Pharmingen) for 15 min at room temperature (RT). […] For coverage analysis, the percentage of PDGFRβ-positive pericyte area covering lectin-positive capillary area was quantified using Image J Area analysis as described previously. For the expression analysis of Aβ transporters, the area of LRP1, RAGE and Mdr1-occupied endothelium were measured as an area percentage normalized by the total area of lectin-positive capillaries using Image J Area measurement tool. […]

miR-126 = assay: qPCR of capillary miR-126 after ghrelin administration; format: in vivo, mouse; conditions: 3×Tg-AD mice aged 9 months; ghrelin s.c. vs saline; P<0.05
Excerpt: as §1, §2

[2] = tested on: 5 capillary miRNAs (miR-126, miR-145, miR-195, miR-21, miR-29b); assay: qPCR of 5 capillary miRNAs after ghrelin administration; format: in vivo, mouse; conditions: 9 months 3×Tg mice; ghrelin 600 μg/kg per day, every 2 days for 2 weeks S.C. vs saline
Excerpt: as §1
as §2, with “U6. […]” for “U6.”

Aβ oligomers = Aβ oligomers (ELISA, immunoblot) in microvessel-depleted cortex and hippocampus after ghrelin; format: in vivo, mouse
Excerpt: as §1, with “vendor. Ten mice per strain (3×Tg-AD, B6129SF2/J) at the ages of 6, 9, and 12 months were used in this study.” for “vendor.”
The method has been described previously. […] After centrifugation at 12,000 rpm for 20 min, protein content was determined by Bradford assay. […]
Human Aβ oligomers were analyzed in the microvessel-depleted cortex and hippocampal supernatant by enzyme-linked immunosorbent assay (ELISA; IBL International, Germany) according to manufacturer's instructions. […]

RAGE = assay: Expression of Aβ transporters in isolated capillaries after ghrelin (immunofluorescence); format: in vivo, mouse; conditions: 3×Tg-AD mice aged 9 months; ghrelin vs saline-injected group
Excerpt: as §1, §3

Aβ plaque = conditions: 5×FAD mice with ghrelin treatment; cited from earlier work

n-octanoylated ghrelin (GSS(Octanoyl)FLSPEHQRVQQRKESKKPPAKLQPR; UniProt Q9UBU3 24-51, looked up) [neuropeptide "hunger hormone" generated from ghrelinergic cells of the gastrointestinal tract; n-octanoylated ghrelin from AnaSpec]
expression level of capillary miR-145 from hippocampus and cerebral cortex (miR-145): significant increase | percentage of pericyte coverage [1]: increased significantly | expression level of capillary miR126 from hippocampus and cerebral cortex (miR-126): significant increase | expression levels of all 5 capillary miRNAs in hippocampus and cerebral cortex [2]: significant increase | level of Aβ oligomers (Aβ oligomers; 3×Tg-AD mice aged 9 months, ghrelin vs vehicle, ELISA and immunoblot, vessels-depleted hippocampus and cortex, P<0.05): significantly lower level | Aβ levels (both APP and Aβ oligomers) (Aβ oligomers; 9 months 3×Tg mice, ghrelin 600 μg/kg per day, every 2 days for 2 weeks S.C. vs saline, 6E10 and A11 antibodies): significantly lower | decline of relative expression of RAGE in isolated capillaries (RAGE): ~10% | Aβ plaque burden (Aβ plaque): no significant diminishment
